Experimental data from publication PMC4191400 (Nucleic Acids Research, 2014).
“And” between values parts separate entries of the source, which are not always exact repeats. Identical values can stand only once. Like-named read-outs stand apart in the source and are kept apart here.

Assays:
WT HIV-1 = assay: HIV-1 drug susceptibility assay (inhibition of HIV-1 replication), WT virus; format: cell-based; details: Human immunodeficiency virus 1, head: P4/R5 cells, footnote: TZM-bl cells, mean ± SD, at least three experiments
Procedure: (§1) The genes for K103N, E138D/K101R and K101R/K103N/E138D RT were cloned into HIV-1LAI ([11]). NNRTI susceptibility was determined in TZM-bl cells as described previously ([21]).

K101R/E138D HIV-1 = assay: HIV-1 drug susceptibility assay, K101R/E138D virus; format: cell-based; details: for EC50: Human immunodeficiency virus 1, head: P4/R5 cells, footnote: TZM-bl cells, mean ± SD, read-out: EC50, inhibition of HIV-1 replication
Procedure: as §1

K103N HIV-1 = assay: HIV-1 drug susceptibility assay, K103N virus; format: cell-based
Procedure: as §1

K101R/E138D/K103N HIV-1 = assay: HIV-1 drug susceptibility assay, K101R/E138D/K103N virus; format: cell-based; details: for EC50: Human immunodeficiency virus 1, head: P4/R5 cells, footnote: TZM-bl cells, mean ± SD, read-out: EC50, inhibition of HIV-1 replication
Procedure: as §1

K103N RT–T/P complex [1] = molecular target: T1, K103N RT–T/P complex (Human immunodeficiency virus type 1 group M subtype B, UniProt P04585, K690N); format: binding, HIV-1; details: K103N vs WT RT–T/P complex
T1 construct: asymmetric heterodimer composed of a 66-kDa (p66) subunit and a p66-derived 51-kDa (p51) subunit; made in house
Procedure: (§2) Fluorescence anisotropy experiments were performed as previously described ([17],[18]). Assays were carried out using a fluorescein-labeled T/P substrate. The concentration of T/P in all experiments was 5 nM (in a 400-μl cuvette). Data were analyzed as described in the Supplementary Materials and Methods section.
(§3) -ddC-3’) was annealed to a 5’-biotinylated 35 nucleotide DNA […]
(§4) template (5’-biotin-[…]-3’). We also […]
(§5) performed PIFE experiments using a 21 nucleotide DNA primer (5’-Cy3- […]
(§6) -ddC-3’) annealed to the same template. For the single-pair FRET experiments, the same T/P was used, but it lacked 5’-Cy3. For the anisotropy […]
(§7) Fluorescence anisotropy experiments were performed as previously described (5, 6), using a Varian Cary Eclipse fluorescence spectrophotometer. […]
(§8) 5 and 10 nm respectively. […] Anisotropy (r) was calculated as: r= (IVV-G·IVH)/(IVV+2·G·IVH) (1) where IVV is the fluorescence intensity with vertically oriented excitation and emission polarizers and IVH is the fluorescence intensity with a vertically oriented excitation polarizer and a horizontally oriented emission polarizer. The G-factor, defined as G=IHV/IHH, was measured […]
(§9) For all theoretical calculations, r was calculated using the Perrin equation: r=ro/(1+τ/ θ)                 (2) where ro is the fundamental anisotropy, τ  the lifetime and θ  the rotational correlation time (7). […]
(§10) analyzed. […]

WT RT–T/P complex [2] = molecular target: WT RT–T/P complex (Human immunodeficiency virus type 1 group M subtype B, UniProt P04585, C625V/C867S/D837C/T726C); parameters: species or system HIV-1; details: for Eapp (apparent FRET energy transfer, fingers-thumb): mean ± SD
Procedure: Single-molecule total internal reflection fluorescence (TIRF) microscopy was performed as described previously ([19]). For the PIFE assays, Cy3-labeled T/P molecules were surface-tethered to a polyethylene glycol (PEG) treated flow cell via a biotin:streptavidin:biotin-PEG linkage. The concentrations of T/P were typically 20 pM, which provided an optimal surface density of ∼100 molecules per field of view. […] For the FRET assays, unlabeled T/P was surface-tethered by introducing 2 μM T/P into the flow cell to allow formation of a surface-dense layer of T/P substrates. Labeled RT (40 pM) was then introduced into the flow cell and allowed to bind to the T/P. Unbound RT was removed by washing. The PIFE and FRET data were analyzed as described in Supplementary Materials and Methods.
All experiments were performed in 50 mM Tris-HCl, pH 7.5, 25 mM NaCl, and 5 mM MgCl2.
The buffer used in TIRF microscopy experiments also contained 0.1 mg/ml glucose oxidase, 0.02 mg/ml catalase, 0.4% wt/v β-d-glucose, and 2 mM Trolox. Unless otherwise indicated, the TTP, EFV and NVP concentrations were held at 50 μM, 500 nM and 1 μM, respectively, […]
Unlabeled T/P was surface tethered by introducing 2 µM T/P into the flow cell to allow formation of a surface-dense layer of T/P substrates, which promoted observation of RT-T/P complexes. 40 pM of labeled RT was then introduced into the flow cell and allowed to bind to the T/P. Unbound RT was removed by extensive washing. Low concentrations of RT followed by a wash step eliminated excess background noise and/or saturation of the EMCCD. Based on the relative distribution of donor and acceptor intensities observed in the TIRFM fields of view, […]
analyzed. Eapp was calculated using the equation: […]
where ID and IA denote background-corrected donor and acceptor intensities, respectively.
RT. Eapp histograms were subsequently constructed by collecting the pre-photobleach regions of all traces visibly resulting in donor and acceptor photobleaching, binned into 25 bins, and then fit with single Gaussian functions (see Supplementary Figure 3). Thumb/fingers distances reported in Supplementary Table 1 were derived from the fitted Eapp values using the Förster equation: […]
where r is the distance between the dipoles of Cy3 and Cy5, and Ro is the empirically calculated

WT HIV-1 RT = molecular target: T2, WT HIV-1 RT (Human immunodeficiency virus type 1 group M subtype B, UniProt P04585); assay: biochemical; details: mean ± SD, at least four experiments, read-out: IC50, inhibition of RT RNA-dependent DNA polymerase activity
T2 construct: asymmetric heterodimer composed of a 66-kDa (p66) subunit and a p66-derived 51-kDa (p51) subunit; made in house
Procedure: (§11) The RNA- and DNA-dependent DNA polymerase activities of the purified and labeled RTs were assessed as described previously ([14]).

E138D HIV-1 RT = molecular target: T3, E138D HIV-1 RT (Human immunodeficiency virus type 1 group M subtype B, UniProt P04585, E725D); assay: Inhibition of RT RNA-dependent DNA polymerase activity, E138D RT; format: biochemical
T3 construct: asymmetric heterodimer composed of a 66-kDa (p66) subunit and a p66-derived 51-kDa (p51) subunit; made in house
Procedure: as §11

K101R HIV-1 RT = molecular target: T4, K101R HIV-1 RT (Human immunodeficiency virus type 1 group M subtype B, UniProt P04585, K688R); assay: Inhibition of RT RNA-dependent DNA polymerase activity, K101R RT; format: biochemical
T4 construct: asymmetric heterodimer composed of a 66-kDa (p66) subunit and a p66-derived 51-kDa (p51) subunit; made in house
Procedure: as §11

K101R/E138D HIV-1 RT = molecular target: T5, K101R/E138D HIV-1 RT (Human immunodeficiency virus type 1 group M subtype B, UniProt P04585, E725D/K688R); assay: Inhibition of RT RNA-dependent DNA polymerase activity, K101R/E138D RT; format: biochemical
T5 construct: asymmetric heterodimer composed of a 66-kDa (p66) subunit and a p66-derived 51-kDa (p51) subunit; made in house
Procedure: as §11

WT RT–T/P complex [3] = molecular target: T6, WT RT–T/P complex (Human immunodeficiency virus type 1 group M subtype B, UniProt P04585); assay: biochemical; parameters: species or system HIV-1; details: fluorescence anisotropy, 5 nM T/P, read-out: Kd, NNRTI binding to the RT–T/P complex
T6 construct: asymmetric heterodimer composed of a 66-kDa (p66) subunit and a p66-derived 51-kDa (p51) subunit; made in house
Procedure: as §2, §3, §4, §5, §6, §7, §8, §9, §10

K103N RT–T/P complex [4] = molecular target: T1, K103N RT–T/P complex; assay: dTTP binding to RT-T/P complex by fluorescence anisotropy, K103N; parameters: species or system HIV-1; details: presence vs absence of EFV
Procedure: as §2, §3, §4, §5
-ddC-3’) annealed to the same template. For the single-pair FRET experiments, the same T/P was used, but it lacked 5’-Cy3. For the anisotropy experiments we used a 19 nt DNA primer (5’-Fluorescein-dT-[…]- […]
Fluorescence anisotropy experiments were performed as previously described (5, 6), using a Varian Cary Eclipse fluorescence spectrophotometer. […] Anisotropy (r) was calculated as: r= (IVV-G·IVH)/(IVV+2·G·IVH) (1) where IVV is the fluorescence intensity with vertically oriented excitation and emission polarizers and IVH is the fluorescence intensity with a vertically oriented excitation polarizer and a horizontally oriented emission polarizer. The G-factor, defined as G=IHV/IHH, was measured before each experiment to ensure a value of ~ 1.65. […]
For fluorescein, empirically determined values of ro = […] and τ = 4.1 ns were used (8, 9). θ was calculated using the equation: […]
as §10

[5] = Human immunodeficiency virus 1, K103N virus, head: P4/R5 cells, footnote: TZM-bl cells, mean ± SD, read-out: EC50, inhibition of HIV-1 replication

Question: What does the source list for `O=C1Nc2ccc(Cl)cc2[C@@](C#CC2CC2)(C(F)(F)F)O1` [Efavirenz, efavirenz]?
Answer: EC50 (WT HIV-1): 1.3 ± 0.2 nM; Increase of susceptibility (as measured by IC50 and EC50) by the E138D/K101R mutation (K101R/E138D HIV-1; E138D/K101R vs WT): up to 7 fold; EC50 (K101R/E138D HIV-1; K101R/E138D virus): 0.2 nM; EC50 (K103N HIV-1; Human immunodeficiency virus 1, read-out: EC50, inhibition of HIV-1 replication): 64 ± 18.7 nM; EC50 (K101R/E138D/K103N HIV-1): 15.9 ± 2.4 nM

Question: What does the source list for `Cc1ccnc2c1NC(=O)c1cccnc1N2C1CC1` [Nevirapine, nevirapine]?
Answer: EC50 (WT HIV-1): 24.6 ± 5.9 nM; EC50 (K101R/E138D HIV-1; K101R/E138D virus): 21.6 ± 16.8 nM; EC50 (K103N HIV-1; [5]): > 200 nM; EC50 (K101R/E138D/K103N HIV-1): > 200 nM; Decrease of binding affinity by the K103N substitution (K103N RT–T/P complex [1]): ~10 fold; Eapp (apparent FRET energy transfer, fingers-thumb) (WT RT–T/P complex [2]; WT RT-T/P plus NNRTI (EFV 500 nM, NVP 1 μM), centre of Gaussian fit, listed as NVP): 0.68 ± 0.18 and 0.68; Eapp (apparent FRET energy transfer, fingers-thumb) (WT RT–T/P complex [2]; WT RT-T/P-dNTP plus NNRTI): 0.72 ± 0.14; Average opening of the fingers and thumb (WT RT–T/P complex [2]; WT RT–T/P complex, NNRTI vs no inhibitor): 2.0 Å; Effect on fingers/thumb FRET of the ternary complex (WT RT–T/P complex [2]; WT RT–T/P–dNTP complex, NNRTI infused): did not affect the FRET histogram

Question: What does the source list for `Cc1cc(/C=C/C#N)cc(C)c1Nc1ccnc(Nc2ccc(C#N)cc2)n1` [Rilpivirine, rilpivirine]?
Answer: IC50 (WT HIV-1 RT): 22.5 ± 2.2 nM; Fold-R (IC50 mutant/IC50 WT) (E138D HIV-1 RT): 0.4; IC50 (E138D HIV-1 RT; mean ± SD): 8.3 ± 1.2 nM; Fold-R (IC50 mutant/IC50 WT) (K101R HIV-1 RT): 0.7; IC50 (K101R HIV-1 RT; mean ± SD): 15.5 ± 7.6 nM; Fold-R (IC50 mutant/IC50 WT) (K101R/E138D HIV-1 RT): 0.5; IC50 (K101R/E138D HIV-1 RT; mean ± SD): 11.2 ± 0.8 nM; EC50 (WT HIV-1): 0.37 ± 0.06 nM; EC50 (K101R/E138D HIV-1; K101R/E138D virus): 0.06 ± 0.01 nM; Fold-R (EC50 mutant/EC50 WT) (K101R/E138D HIV-1; K101R/E138D virus): 0.2; EC50 (K103N HIV-1; [5]): 0.4 ± 0.1 nM; Fold-R (EC50 mutant/EC50 WT) (K103N HIV-1; K103N virus): 1.1; Fold-R (EC50 mutant/EC50 WT) (K101R/E138D/K103N HIV-1): 0.3; EC50 (K101R/E138D/K103N HIV-1): 0.12 ± 0.03 nM; Kd (WT RT–T/P complex [3]): 82.5 nM; Effect of the K103N substitution on NNRTI binding affinity (K103N RT–T/P complex [1]): did not decrease the binding affinity

Question: `Cc1cn([C@H]2C[C@H](O)[C@@H](COP(=O)(O)OP(=O)(O)OP(=O)(O)O)O2)c(=O)[nH]c1=O` [dTTP] was tested. Which “Increase of Kd for dTTP binding in the presence of inhibitor” value (K103N RT–T/P complex [4]) did it give?
Answer: 3 fold
